{
  "source": "patent US20050147663A1",
  "about": "“Method of treatment for improved bioavailability” (priority 2003, published 2005)",
  "origin": "cited, not measured here",
  "key": {"[1]": {"settings": "enhanced by food in some instances, reduced in others"}, "[2]": {"settings": "standard breakfast; capsules"}, "[3]": {"settings": "delayed release formulations, drug given 30 minutes after food"}},
  "data": [
    {"smiles": "CC(C)CN(C[C@@H](O)[C@H](Cc1ccccc1)NC(=O)O[C@H]1CCOC1)S(=O)(=O)c1ccc(N)cc1", "note": "[amprenavir]", "values": [
      {"measurement": "bioavailability affected by the presence of food", "setting": "[1]", "value": "affected"}
    ]},
    {"smiles": "C[C@H]1c2cccc(O)c2C(=O)C2=C(O)[C@]3(O)C(=O)C(C(N)=O)=C(O)[C@@H](N(C)C)[C@@H]3[C@@H](O)[C@@H]21", "note": "[doxycycline]", "values": [
      {"measurement": "bioavailability as judged by AUC and Cmax", "setting": "[2]", "value": "reduced"}
    ]},
    {"smiles": "O=C1Nc2ccc(Cl)cc2[C@@](C#CC2CC2)(C(F)(F)F)O1", "note": "[efavirenz]", "values": [
      {"measurement": "bioavailability affected by the presence of food", "setting": "[1]", "value": "affected"}
    ]},
    {"smiles": "COc1ccc2[n-]c([S+]([O-])Cc3ncc(C)c(OC)c3C)nc2c1.COc1ccc2[n-]c([S+]([O-])Cc3ncc(C)c(OC)c3C)nc2c1.[Mg+2]", "note": "(centres unmarked) [esomeprazole magnesium]", "values": [
      {"measurement": "decrease of the drug AUC", "setting": "delayed release capsules, administration after food intake", "value": "43-53%"}
    ]},
    {"smiles": "CC(C)(C)NC(=O)[C@@H]1CN(Cc2cccnc2)CCN1C[C@@H](O)C[C@@H](Cc1ccccc1)C(=O)N[C@H]1c2ccccc2C[C@H]1O", "note": "[indinavir]", "values": [
      {"measurement": "bioavailability affected by the presence of food", "setting": "[1]", "value": "affected"}
    ]},
    {"smiles": "Nc1ccn([C@@H]2CS[C@H](CO)O2)c(=O)n1", "note": "[lamivudine]", "values": [
      {"measurement": "bioavailability affected by the presence of food", "setting": "[1]", "value": "affected"}
    ]},
    {"smiles": "Cc1c(OCC(F)(F)F)ccnc1C[S+]([O-])c1nc2ccccc2[nH]1", "note": "(centres unmarked) [lansoprazole]", "values": [
      {"measurement": "AUC diminished", "setting": "[3]", "value": "50-70%"},
      {"measurement": "Cmax diminished", "setting": "[3]", "value": "50-70%"}
    ]},
    {"smiles": "Cc1c(O)cccc1C(=O)N[C@@H](CSc1ccccc1)[C@H](O)CN1C[C@H]2CCCC[C@H]2C[C@H]1C(=O)NC(C)(C)C", "note": "[nelfinavir]", "values": [
      {"measurement": "bioavailability affected by the presence of food", "setting": "[1]", "value": "affected"}
    ]},
    {"smiles": "COc1ccc2[nH]c([S+]([O-])Cc3ncc(C)c(OC)c3C)nc2c1", "note": "(centres unmarked) [omeprazole]", "values": [
      {"measurement": "reduction in Cmax", "setting": "20 mg delayed release capsule, administered with applesauce", "value": 25, "unit": "%"},
      {"measurement": "food effect", "setting": "40 mg delayed release capsule, with applesauce", "value": "does not show a food effect"}
    ]},
    {"smiles": "COc1ccnc(C[S+]([O-])c2nc3ccc(OC(F)F)cc3[nH]2)c1OC", "note": "(centres unmarked) [pantoprazole sodium]", "values": [
      {"measurement": "Tmax variability", "setting": "delayed release product", "value": "highly variable"},
      {"measurement": "Tmax change when given with food", "setting": "delayed release product, given with food", "value": "can increase significantly"}
    ]},
    {"smiles": "CC(C)c1nc(CN(C)C(=O)N[C@H](C(=O)N[C@@H](Cc2ccccc2)C[C@H](O)[C@H](Cc2ccccc2)NC(=O)OCc2cncs2)C(C)C)cs1", "note": "[ritonavir]", "values": [
      {"measurement": "bioavailability affected by the presence of food", "setting": "[1]", "value": "affected"}
    ]},
    {"smiles": "CC(C)(C)NC(=O)[C@@H]1C[C@@H]2CCCC[C@@H]2CN1C[C@@H](O)[C@H](Cc1ccccc1)NC(=O)[C@H](CC(N)=O)NC(=O)c1ccc2ccccc2n1", "note": "[saquinavir]", "values": [
      {"measurement": "bioavailability affected by the presence of food", "setting": "[1]", "value": "affected"}
    ]},
    {"smiles": "Nc1ccn([C@H]2CC[C@@H](CO)O2)c(=O)n1", "note": "[zalcitabine]", "values": [
      {"measurement": "bioavailability affected by the presence of food", "setting": "[1]", "value": "affected"}
    ]},
    {"smiles": "Cc1cn([C@H]2C[C@H](N=[N+]=[N-])[C@@H](CO)O2)c(=O)[nH]c1=O", "note": "[zidovudine]", "values": [
      {"measurement": "bioavailability affected by the presence of food", "setting": "[1]", "value": "affected"}
    ]}
  ]
}
